Measured values: patent US8536157B2, “Non-steroidal compounds” (The University of Melbourne, priority 2007, dated 2013)

What was measured:
[1] = target: proteins in rat lung membranes; assay: Competitive binding assay with [3H]-CP2117 on rat lung membranes (RLM); details: given as Log IC50 (negative values); displacement of 10 nM [3H]-CP2117, overnight at 4° C.; ND- not detected
[2] = test system: PGE2 release in U937 cells; assay: PGE2 release from PMA-treated U937 cells (radioimmunoassay); format: cell-based, human; details: 24 hour incubation; for activity at 1 µM: Homo sapiens, U-937, 24 h, read-out: Effects on PGE2 release in U937 cells at 1 μM as a % of PMA control, mean
Description: The U937 monocytic cell line (available from the ATCC, USA) is commonly used to evaluate anti-inflammatory agents. In the present experiment, U937 cells maintained in culture in a medium comprising RPMI containing (5% FCS v/v; supplemented with 100 U/ml penicillin, and […] streptomycin) were treated with phorbol myristate acetate (10 nM) then immediately dispersed into a 24 well cell culture plate at a concentration of 2×10^5 cells per ml in a volume of 1 ml per well. After 24 hours by which time the cells had adhered to the plastic substrate, they were treated with one of several analogues or with the vehicle of 0.1% DMSO. After a further 24 hour incubation period the supernatant was harvested and the content of prostaglandin E2 was measured by a radioimmunoassay, as described by Vlahos, R., & Stewart, A. G. (1999). (“Interleukin-1α and Tumour necrosis factor-α inhibit airway smooth muscle DNA synthesis by a glucocorticoid-sensitive induction of cyclo-oxygenase-2. British Journal of Pharmacology, 126, 1315-1324). […] The data in the table are presented as percentage of the control level of Prostaglandin E2.
Several analogues were evaluated for their actions on the release of PGE2 from the human U937macrophage cell line. Cells were stimulated by exposure to PMA 1 nM and after a period allowed for adherence of cells to the plastic culture dish, the cell were treated with one of several CP analogues. […] The chemical structures of CP1-56 and CP1-58 are as follows: […]

[3] = test system: PGE2 release in J774 macrophages; assay: PGE2 release from LPS/IFNγ-stimulated J774 macrophages (radioimmunoassay); format: cell-based, murine; details: Mus musculus, J774, 24 h, 30 min pre-treatment, 24 hour incubation; for activity at 1 µM: read-out: Effects on PGE2 release in J774 macrophages at 1 μM as a % of LPS/IFNγ control, mean; for activity at 10 µM: l0 μM, read-out: Effects on PGE2 release in J774 macrophages at l0 μM as a % of LPS/IFNγ control, mean

Log IC50 RLM binding [1]	melting point [°C]	SMILES	activity at 1 µM [2] [%]	activity at 1 µM [3] [%]	activity at 10 µM [3] [%]	Effects on PGE2 release in U937 cells at 1 μM as a % of PMA control, mean [2]
−4.76	–	Brc1cc2c(cc1/C=N/OCc1ccccc1)OCO2 [Compound 10-OK-07a]	114	–	–	–
−6.33	105.9 to 108.7	COc1cc(-c2ccc(C)cc2)c(/C(C)=N/OCc2ccc([N+](=O)[O-])cc2)cc1O [CP30345, (E)-5′-Hydroxy-4′-methoxy-2′-(4-methylphenyl)acetophenone O-4-Nitrobenzyl Oxime]	–	76	1	–
−5.73	–	COc1cc([C@H]2CC[C@@](C)(CO)CC2)c(C(C)=NOCc2ccc([N+](=O)[O-])cc2)cc1O [CP30451, 2′-(4-hydroxymethyl-4-methyl)cyclohexyl-5′-hydroxy-4′-methoxyacetophenone O-4-Nitrobenzyl Oxime]	67	–	–	–
−5.54	–	COc1cc([C@H]2CC[C@](C)(CO)CC2)c(C(C)=NOCc2ccc3nonc3c2)cc1O [CP30452, 2′-(4-Hydroxymethyl-4-methyl)cyclohexyl-5′-hydroxy-4′-methoxyacetophenone O-(benzofurazan-5-yl)methyl Oxime]	89	–	–	–
−6.65	118.4 to 121.1	COc1cc(/C(C)=N/OCc2ccc([N+](=O)[O-])cc2)ccc1O [CP30261, (E)-4′-Hydroxy-3′-methoxyacetophenone O-4-Nitrobenzyl Oxime]	–	–	–	–
–	88.2 to 89.5	COc1ccc(/C(C)=N/OCc2ccc([N+](=O)[O-])cc2)cc1 [CP30253, (E)-4′-Methoxyacetophenone O-4-Nitrobenzyl Oxime]	–	47	4	–
−5.81	–	COc1cc([C@H]2CC[C@](C)(CO)CC2)c(C(C)=NOCc2ccc([N+](=O)[O-])cc2)cc1O [CP30450A, 2′-(4-hydroxymethyl-4-methyl)cyclohexyl-5′-hydroxy-4′-methoxyacetophenone O-4-Nitrobenzyl Oxime]	80	–	–	–
−6.05	125.9 to 129.7	COc1ccc(/C(C)=N/OCc2ccc(C#N)cc2)cc1O [CP30283, (E)-3′-Hydroxy-4′-methoxyacetophenone O-4-Cyanobenzyl Oxime]	–	–	–	–
−6.86	47.7 to 50.2	COc1ccc(/C(C)=N/OCc2cc(F)cc(F)c2)cc1O [CP30274, (E)-3′-Hydroxy-4′-methoxyacetophenone O-3,5-Difluorobenzyl Oxime]	–	–	–	–
−5.5	67	COc1ccc(/C(C)=N/OCc2cccc(F)c2)cc1F [CP9125, 3′-Fluoro-4′-methoxyacetophenone-O-3-fluorobenzyloxime]	–	–	–	–
−5.85	–	COc1cc([C@H]2CC[C@](C)(CO)CC2)c(C(C)=NOCc2ccc([N+](=O)[O-])cc2)cc1O [CP30450B, 2′-(4-hydroxymethyl-4-methyl)cyclohexyl-5′-hydroxy-4′-methoxyacetophenone O-4-Nitrobenzyl Oxime]	–	–	–	77 % of PMA control
−5.99	111.5 to 114.1	COc1cc(-c2ccc(C(F)(F)F)cc2)c(/C(C)=N/OCc2ccc([N+](=O)[O-])cc2)cc1O [CP30346, (E)-2′-(4-Trifluoromethylphenyl)-5′-hydroxy-4′-methoxyacetophenone O-4-Nitrobenzyl Oxime]	–	78	34	–
−5.25	–	COc1ccc(C(C)=NOCc2ccc3nonc3c2)cc1OS(N)(=O)=O [AA-1-81]	43	–	–	–

Further lines, the compound ahead of its results:

SMILES	Log IC50 RLM binding [1]	melting point [°C]	activity at 1 µM [2] [%]	activity at 1 µM [3] [%]	activity at 10 µM [3] [%]	Effects on PGE2 release in U937 cells at 1 μM as a % of PMA control, mean [2]
COc1cc(/C(C)=N/OCc2ccc3nonc3c2)ccc1O [AA-1-56]	−6.21	–	16	–	–	–
COc1ccc(/C(C)=N/OCc2ccc3nonc3c2)cc1 [AA-1-54]	–	–	76	–	–	–
COc1cc2c(cc1OS(N)(=O)=O)C(=NOCc1ccc([N+](=O)[O-])cc1)C(C)(C)CC2 [AA-1-79]	−4.58	–	113	–	–	–
COc1ccc(/C(C)=N/OCc2ccc3nonc3c2)cc1O [AA-1-80]	−6.33	–	38	–	–	–
C/C(=N\OCc1ccc2nonc2c1)c1ccc2c(c1)OCO2 [AA-1-55]	–	–	90	–	–	–
COc1cc2c(cc1O)/C(=N/OCc1ccc([N+](=O)[O-])cc1)C(C)(C)CC2 [AA-1-39-2]	−6.19	–	100	–	–	–
C/C(=N\OCc1ccc2nonc2c1)c1ccccc1 [AA-1-53]	–	–	91	–	–	–
COc1cc(/C(C)=N/OCc2ccc3nonc3c2)ccc1OS(N)(=O)=O [AA-1-78]	−4.87	–	19	–	–	–
COc1ccc(/C(C)=N/OCc2ccc3nonc3c2)cc1OC [AA-1-58]	−4.74	–	111	–	–	–
COc1cc(-c2ccc(NC(=O)OC(C)(C)C)cc2)c(/C(C)=N/OCc2ccc([N+](=O)[O-])cc2)cc1O [CP30342, (E)-2′-(4-tert-Butoxycarbonylaminophenyl)-5′-hydroxy-4′-methoxyacetophenone O-4-Nitrobenzyl Oxime]	−6.79	91 to 96.8	–	19	0	–
